Common to all, as to format: biochemical
Details in all cases: 300-350 nM

In assay [1] the target is ABL1 (Homo sapiens (Human), UniProt P00519). The assay is described as follows: SelectScreen Kinase Profiling: ABL1. The text has this:
(§1) Table 2 below highlights the selectivity of a representative compound of the invention against a panel of 50 kinases (assessed using the Invitrogen SelectScreen® Kinase Profiling Service).

Assay [2] addresses ACVR1B (ALK4) (Homo sapiens (Human), UniProt P36896). The assay is described as follows: SelectScreen Kinase Profiling: ACVR1B.
Text: as §1

In assay [3] the target is BTK (Homo sapiens (Human), UniProt Q06187). The assay is described as follows: SelectScreen Kinase Profiling: BTK.
Chain of BTK (Q06187 whole entry): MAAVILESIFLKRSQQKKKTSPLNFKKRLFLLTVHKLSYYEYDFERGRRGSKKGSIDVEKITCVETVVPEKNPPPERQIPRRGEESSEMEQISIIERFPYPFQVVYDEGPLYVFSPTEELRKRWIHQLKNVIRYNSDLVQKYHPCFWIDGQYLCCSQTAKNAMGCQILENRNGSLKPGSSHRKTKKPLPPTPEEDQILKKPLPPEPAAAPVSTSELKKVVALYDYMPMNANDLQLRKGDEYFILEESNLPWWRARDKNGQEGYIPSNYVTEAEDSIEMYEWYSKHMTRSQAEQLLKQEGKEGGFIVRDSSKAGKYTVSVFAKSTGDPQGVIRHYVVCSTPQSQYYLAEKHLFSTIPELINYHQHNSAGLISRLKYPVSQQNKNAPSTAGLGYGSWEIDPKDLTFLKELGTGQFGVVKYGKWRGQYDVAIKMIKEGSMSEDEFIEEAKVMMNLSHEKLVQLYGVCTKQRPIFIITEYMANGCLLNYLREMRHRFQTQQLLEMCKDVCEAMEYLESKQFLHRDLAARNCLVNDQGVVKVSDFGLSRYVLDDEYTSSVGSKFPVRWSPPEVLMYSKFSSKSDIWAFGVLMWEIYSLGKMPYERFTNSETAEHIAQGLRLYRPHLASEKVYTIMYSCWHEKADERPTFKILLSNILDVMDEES
Text: as §1

Assay [4] addresses CSNK2A1 (CK2 alpha 1) (Homo sapiens (Human), UniProt P68400). Kind of assay: SelectScreen Kinase Profiling: CSNK2A1.
Text: as §1

The target of assay [5] is IKBKB (IKK beta) (Homo sapiens (Human), UniProt O14920). Kind of assay: SelectScreen Kinase Profiling: IKBKB.
Chain of IKBKB (IKK beta) (O14920 whole entry): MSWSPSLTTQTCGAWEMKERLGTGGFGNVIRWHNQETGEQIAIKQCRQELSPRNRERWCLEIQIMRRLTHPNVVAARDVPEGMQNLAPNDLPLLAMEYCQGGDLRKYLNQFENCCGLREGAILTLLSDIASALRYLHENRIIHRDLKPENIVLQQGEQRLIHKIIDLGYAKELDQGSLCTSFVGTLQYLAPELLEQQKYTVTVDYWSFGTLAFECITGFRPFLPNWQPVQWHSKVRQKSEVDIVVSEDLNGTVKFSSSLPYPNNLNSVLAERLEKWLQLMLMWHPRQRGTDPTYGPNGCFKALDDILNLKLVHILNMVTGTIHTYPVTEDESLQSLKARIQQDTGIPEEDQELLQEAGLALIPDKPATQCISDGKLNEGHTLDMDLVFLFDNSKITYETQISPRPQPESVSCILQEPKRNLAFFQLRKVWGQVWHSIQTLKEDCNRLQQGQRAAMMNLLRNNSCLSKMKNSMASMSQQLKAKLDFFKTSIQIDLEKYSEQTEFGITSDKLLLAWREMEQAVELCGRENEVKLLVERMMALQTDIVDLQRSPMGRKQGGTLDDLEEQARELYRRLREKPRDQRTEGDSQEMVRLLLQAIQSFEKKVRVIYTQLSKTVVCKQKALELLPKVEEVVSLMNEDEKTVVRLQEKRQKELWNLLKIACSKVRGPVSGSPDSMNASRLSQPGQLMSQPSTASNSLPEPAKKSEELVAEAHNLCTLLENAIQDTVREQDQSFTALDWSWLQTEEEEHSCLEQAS
Text: as §1

The target of assay [6] is MAP2K1 (MEK1) (Homo sapiens (Human), UniProt Q02750). Kind of assay: SelectScreen Kinase Profiling: MAP2K1.
Chain of MAP2K1 (MEK1) (Q02750 whole entry): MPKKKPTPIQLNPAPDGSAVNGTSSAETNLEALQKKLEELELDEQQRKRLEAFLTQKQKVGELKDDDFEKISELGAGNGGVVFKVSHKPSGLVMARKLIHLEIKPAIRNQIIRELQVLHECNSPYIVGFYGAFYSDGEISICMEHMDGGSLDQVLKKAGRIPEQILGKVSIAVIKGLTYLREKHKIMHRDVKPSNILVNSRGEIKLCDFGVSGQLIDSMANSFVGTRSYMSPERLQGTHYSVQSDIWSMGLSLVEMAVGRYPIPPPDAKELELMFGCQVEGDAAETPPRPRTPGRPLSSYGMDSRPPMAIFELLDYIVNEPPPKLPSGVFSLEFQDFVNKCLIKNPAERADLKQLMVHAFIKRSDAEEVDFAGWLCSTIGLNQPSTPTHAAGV
Text: as §1

The structures appear in SMILES notation.

Chain of ACVR1B (ALK4) (P36896 24-505): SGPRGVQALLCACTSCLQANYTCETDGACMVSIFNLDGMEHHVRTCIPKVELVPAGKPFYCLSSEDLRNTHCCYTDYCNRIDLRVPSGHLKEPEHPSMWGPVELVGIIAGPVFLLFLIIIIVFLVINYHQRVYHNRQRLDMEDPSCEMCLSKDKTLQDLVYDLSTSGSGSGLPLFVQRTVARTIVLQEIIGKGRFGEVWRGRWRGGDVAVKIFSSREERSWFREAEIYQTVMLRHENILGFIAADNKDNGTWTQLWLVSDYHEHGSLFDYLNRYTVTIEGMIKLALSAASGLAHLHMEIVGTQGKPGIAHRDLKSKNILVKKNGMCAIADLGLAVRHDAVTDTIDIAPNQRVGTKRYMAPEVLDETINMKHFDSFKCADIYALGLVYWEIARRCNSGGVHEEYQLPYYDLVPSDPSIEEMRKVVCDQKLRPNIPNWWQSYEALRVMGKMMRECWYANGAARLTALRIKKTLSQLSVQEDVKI
Chain of ABL1 (P00519 whole entry): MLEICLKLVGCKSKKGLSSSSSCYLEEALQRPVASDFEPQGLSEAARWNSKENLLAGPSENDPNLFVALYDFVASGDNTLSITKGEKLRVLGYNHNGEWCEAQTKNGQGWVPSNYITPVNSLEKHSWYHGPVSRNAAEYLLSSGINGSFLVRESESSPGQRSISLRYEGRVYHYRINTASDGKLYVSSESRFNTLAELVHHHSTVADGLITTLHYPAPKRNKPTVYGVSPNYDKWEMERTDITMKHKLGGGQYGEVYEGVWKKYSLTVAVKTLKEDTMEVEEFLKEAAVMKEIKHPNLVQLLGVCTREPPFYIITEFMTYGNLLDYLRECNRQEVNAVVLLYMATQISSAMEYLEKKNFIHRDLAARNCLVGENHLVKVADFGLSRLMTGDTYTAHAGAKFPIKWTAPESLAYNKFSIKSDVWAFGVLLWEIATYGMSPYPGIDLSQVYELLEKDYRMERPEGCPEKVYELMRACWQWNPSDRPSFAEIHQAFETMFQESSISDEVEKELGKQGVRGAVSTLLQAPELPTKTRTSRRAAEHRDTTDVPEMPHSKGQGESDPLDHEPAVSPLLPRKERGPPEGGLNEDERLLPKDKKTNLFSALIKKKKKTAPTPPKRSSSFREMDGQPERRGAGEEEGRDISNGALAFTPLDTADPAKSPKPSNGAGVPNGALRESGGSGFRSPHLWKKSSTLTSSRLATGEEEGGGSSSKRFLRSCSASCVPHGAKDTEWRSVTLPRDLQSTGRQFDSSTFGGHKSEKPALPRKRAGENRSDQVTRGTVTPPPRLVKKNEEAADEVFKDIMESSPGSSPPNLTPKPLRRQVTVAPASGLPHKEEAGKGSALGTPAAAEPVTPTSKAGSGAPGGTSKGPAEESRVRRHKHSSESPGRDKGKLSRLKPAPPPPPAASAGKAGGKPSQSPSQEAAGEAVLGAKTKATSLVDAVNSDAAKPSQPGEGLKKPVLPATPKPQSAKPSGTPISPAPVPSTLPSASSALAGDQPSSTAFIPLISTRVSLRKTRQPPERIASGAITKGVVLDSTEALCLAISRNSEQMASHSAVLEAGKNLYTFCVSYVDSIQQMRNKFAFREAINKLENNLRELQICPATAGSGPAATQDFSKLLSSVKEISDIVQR
Chain of CSNK2A1 (CK2 alpha 1) (P68400 whole entry): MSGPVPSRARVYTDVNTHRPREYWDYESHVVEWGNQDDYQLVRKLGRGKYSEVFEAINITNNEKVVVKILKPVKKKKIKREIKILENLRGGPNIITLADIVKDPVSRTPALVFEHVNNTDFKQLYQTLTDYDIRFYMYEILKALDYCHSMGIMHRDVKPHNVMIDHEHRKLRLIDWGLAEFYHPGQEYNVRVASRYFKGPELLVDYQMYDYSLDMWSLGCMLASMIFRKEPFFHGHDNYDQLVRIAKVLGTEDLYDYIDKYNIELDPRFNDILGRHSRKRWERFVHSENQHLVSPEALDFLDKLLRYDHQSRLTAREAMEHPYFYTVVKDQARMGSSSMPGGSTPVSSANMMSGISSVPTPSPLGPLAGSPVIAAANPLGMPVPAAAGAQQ

For `O=c1c2cnc(Nc3ccc(N4CCNCC4)cc3)nc2ccn1-c1c(Cl)cccc1Cl` [Example 1, 6-(2,6-Dichlorophenyl)-2-((4-(piperazin-1-yl)phenyl)amino)pyrido[4,3-d]pyrimidin-5(6H)-one], the “Inhibition ABL1” value in assay [1] is “+ (Inhibition >75% at 300-350 nM)”. In assay [2], the “Inhibition ACVR1B (ALK4)” value is on record as “− (Inhibition <75% @ 300-350 nM)”. For the same molecule, the “Inhibition BTK” value in assay [3] is “− (Inhibition <75% @ 300-350 nM)”. Moreover, the “Inhibition CSNK2A1 (CK2 alpha 1)” value in assay [4] is on record as “− (Inhibition <75% @ 300-350 nM)”. In addition, in assay [5], the “Inhibition IKBKB (IKK beta)” value is recorded as “− (Inhibition <75% @ 300-350 nM)”. For the same molecule, the “Inhibition MAP2K1 (MEK1)” value in assay [6] is recorded as “− (Inhibition <75% @ 300-350 nM)”.
